## CCN1CCN(c2ccc(Nc3cc(N(C)C(=O)Nc4cc(OC)c(Cl)c(C(F)(F)F)c4Cl)ncn3)cc2)CC1 [Example 25, 3-(2,4-Dichloro-5-methoxy-3-trifluoromethyl-phenyl)-1-{6-[4-(4-ethyl-piperazin-1-yl)-phenylamino]-pyrimidin-4-yl}-1-methyl-urea]
  melting point: 143 to 144 °C

— patent US8293746B2, “Pyrimidinyl aryl urea derivatives being FGF inhibitors” (Novartis AG, priority 2005, dated 2012)
